ED95, Duration and Onset data for ten compounds are collected here from ChEMBL document CHEMBL1132411, “Bis- and mixed-tetrahydroisoquinolinium chlorofumarates: new ultra-short-acting nondepolarizing neuromuscular blockers” (1999).

What all share (type): functional, Cercopithecidae
For assay [1], the system named is Monkey. Briefly: Compound was evaluated for the dose producing 95% suppression of the twitch response in male Rhesus Monkey.
For assay [2], the system named is Monkey. In words: Compound was evaluated for the time from injection to recovery of the twitch to 95% of baseline at the ED95 dose.
The test system of assay [3] is Monkey. In words: Compound was evaluated for the time from injection to peak inhibition of the twitch response at the ED95 dose.
For assay [4], the system named is Monkey. In words: Compound was evaluated for the time from injection to recovery of the twitch to 95% of baseline at 0.2 mg/kg dose.
Assay [5] deals with Monkey. In words: Compound was evaluated for the time from injection to recovery of the twitch to 95% of baseline at 0.4 mg/kg dose.
The test system of assay [6] is Monkey. In words: Compound was evaluated for the time from injection to peak inhibition of the twitch response at 0.2 mg/kg dose.
For assay [7], the system named is Monkey. Briefly: Compound was evaluated for the time from injection to peak inhibition of the twitch response at 0.4 mg/kg dose.
Setting [8] is: Cercopithecidae, in Macaca mulatta, read-out: ED95.

SMILES strings stand for the structures.

Consider `COc1cc2c(cc1OC)[C@@H](c1cc(OC)c(OC)c(OC)c1)[N@+](C)(CCCOC(=O)/C=C(\Cl)C(=O)OCCC[N@+]1(C)CCc3cc(OC)c(OC)cc3[C@H]1c1cc(OC)c(OC)c(OC)c1)CC2.[Cl-].[Cl-]`, for which the ED95 in the assay on Monkey [1] (setting [8]) is 1.79 mg/kg. The Duration in the assay with Monkey [2] came out at 5.1 min. In the assay with Monkey [3], this compound showed an Onset of 46 s.
For `COc1cc2c(cc1OC)[C@H](c1cc(OC)c(OC)c(OC)c1)[N@@+](C)(CCCOC(=O)/C=C(\Cl)C(=O)OCCC[N@@+]1(C)CCc3cc(OC)c(OC)cc3[C@@H]1c1cc(OC)c(OC)c(OC)c1)CC2.[Cl-].[Cl-]` the same measures were 8.5 mg/kg, 11.2 min and 55 s.
With `COc1cc2c(cc1OC)[C@H](c1cc(OC)c(OC)c(OC)c1)[N@@+](C)(CCCOC(=O)/C=C(\Cl)C(=O)OCCC[N@+]1(C)CCc3cc(OC)c(OC)cc3[C@H]1Cc1cc(OC)c(OC)c(OC)c1)CC2.[Cl-].[Cl-]` (stereo in doubt; 6a) [GANTACURIUM CHLORIDE], the Duration in the assay with Monkey [4] (0.2 mg/kg) is 8.46 min; with Monkey [5] (0.4 mg/kg), 10 min. In the assay on Monkey [1], this compound displayed an ED95 of 0.063 mg/kg. For the same compound, the values for the Onset in the assay with Monkey [6] (0.2 mg/kg), in the assay on Monkey [7] (0.4 mg/kg) and in the assay on Monkey [3] were 38 s, 25 s and 88 s, respectively.
As to `COc1cc2c(cc1OC)[C@@H](Cc1cc(OC)c(OC)c(OC)c1)[N+](C)(CCCOC(=O)CC/C=C/CCC(=O)OCCC[N+]1(C)CCc3cc(OC)c(OC)cc3[C@H]1Cc1cc(OC)c(OC)c(OC)c1)CC2.[Cl-].[Cl-]` (stereo partly specified) [MIVACURIUM CHLORIDE], in the assay with Monkey [1] (setting [8]), the ED95 is 0.062 mg/kg. This compound also yielded a Duration in the assay on Monkey [2] of 12 min. Moreover, the Onset with Monkey [3] was found to be 107 s.
Turning to `COc1cc2c(cc1OC)[C@@H](Cc1cc(OC)c(OC)c(OC)c1)[N@+](C)(CCCOC(=O)/C=C(\Cl)C(=O)OCCC[N@+]1(C)CCc3cc(OC)c(OC)cc3[C@H]1Cc1cc(OC)c(OC)c(OC)c1)CC2.[Cl-].[Cl-]`, the Duration in the assay on Monkey [4] is listed as 9.78 min; with Monkey [5] it was 13.4 min; with Monkey [2], 8.7 min. The ED95 in the assay on Monkey [1] (setting [8]) turned out to be 0.109 mg/kg. Moreover, the Onset in the assay with Monkey [6] is 36 s; in the assay on Monkey [7], 23 s; in the assay on Monkey [3] it was 73 s.
Consider `COc1cc2c(cc1OC)[C@@H](c1cc(OC)c(OC)c(OC)c1)[N@+](C)(CCCOC(=O)/C(Cl)=C/C(=O)OCCC[N@+]1(C)CCc3cc(OC)c(OC)cc3[C@H]1Cc1cc(OC)c(OC)c(OC)c1)CC2.[Cl-].[Cl-]`, for which the ED95 in the assay on Monkey [1] (setting [8]) came to 0.31 mg/kg. Besides, in the assay with Monkey [2], the Duration worked out at 3.7 min. The compound further registered an Onset in the assay on Monkey [3] of 37 s.
`C[N+](C)(C)CCOC(=O)CCC(=O)OCC[N+](C)(C)C.[Cl-].[Cl-]` [SUCCINYLCHOLINE CHLORIDE]: the ED95 with Monkey [1] (setting [8]) stood at 1.29 mg/kg. In the assay with Monkey [2], this compound gave a Duration of 5 min. The same compound showed an Onset with Monkey [3] of 50 s.
For `COc1cc2c(cc1OC)[C@H](c1cc(OC)c(OC)c(OC)c1)[N@@+](C)(CCCOC(=O)/C(Cl)=C/C(=O)OCCC[N@+]1(C)CCc3cc(OC)c(OC)cc3[C@H]1Cc1cc(OC)c(OC)c(OC)c1)CC2.[Cl-].[Cl-]` the same measures were 0.25 mg/kg, 3.4 min and 52 s.
`COc1cc2c(cc1OC)[C@H](c1cc(OC)c(OC)c(OC)c1)[N@@+](C)(CCCOC(=O)/C=C(\Cl)C(=O)OCCC[N@+]1(C)CCc3cc(OC)c(OC)cc3[C@H]1Cc1cc(OC)c(OC)c(OC)c1)CC2.[Cl-].[Cl-]` (stereo in doubt; 6ab) [GANTACURIUM CHLORIDE]: the values for the Duration with Monkey [4] (0.2 mg/kg), with Monkey [5] (0.4 mg/kg) and in the assay with Monkey [2] were 7.1 min, 8.7 min and 5.6 min, respectively. The ED95 in the assay with Monkey [1] amounted to 0.163 mg/kg. Also, the Onset with Monkey [6] (0.2 mg/kg) was found to be 44 s; in the assay on Monkey [7] (0.4 mg/kg), 27 s; in the assay on Monkey [3] it was 51 s.
Take `COc1cc2c(cc1OC)[C@@H](c1cc(OC)c(OC)c(OC)c1)[N@+](C)(CCCOC(=O)/C=C/C(=O)OCCC[N@+]1(C)CCc3cc(OC)c(OC)cc3[C@H]1c1cc(OC)c(OC)c(OC)c1)CC2.[Cl-].[Cl-]`: the ED95 in the assay with Monkey [1] (setting [8]) was found to be 1.55 mg/kg. Moreover, in the assay with Monkey [2], the Duration is recorded as 25.5 min. Further, in the assay on Monkey [3], the Onset was 144 s.
